pKi: −log10 of the molar value.
Molecular target: T1, full-length ATR (Homo sapiens, UniProt Q13535)
T1 construct: Assays were carried out at 25° C. in the presence of 5 nM full-length ATR
Assay: ATR Inhibition Assay (radioactive-phosphate incorporation)
Format: biochemical
Conditions: Ki(app); 5 nM full-length ATR, 10 μM ATP, 800 μM target peptide, 25° C.
Protocol: Compounds were screened for their ability to inhibit ATR kinase using a radioactive-phosphate incorporation assay. Assays were carried out in a mixture of 50 mM Tris/HCl (pH 7.5), 10 mM MgCl2 and 1 mM DTT. Final substrate concentrations were 10 μM [γ-33P]ATP (3mCi 33P ATP/mmol ATP, Perkin Elmer) and 800 μM target peptide (ASELPASQPQPFSAKKK).
Assays were carried out at 25° C. in the presence of 5 nM full-length ATR. An assay stock buffer solution was prepared containing all of the reagents listed above, with the exception of ATP and the test compound of interest. 13.5 μL of the stock solution was placed in a 96 well plate followed by addition of 2 μL of DMSO stock containing serial dilutions of the test compound (typically starting from a final concentration of 15 μM with 3-fold serial dilutions) in duplicate (final DMSO concentration 7%). The plate was pre-incubated for 10 minutes at 25° C. and the reaction initiated by addition of 15 μL [γ-33P]ATP (final concentration 10 μM).
The reaction was stopped after […] by the addition of 30 μL 0.1M phosphoric acid containing 2 mM ATP. A multiscreen phosphocellulose filter 96-well plate (Millipore, Cat no. MAPHN0B50) was pretreated with 100 μL 0.2M phosphoric acid prior to the addition of 45 μL of the stopped assay mixture. The plate was washed with 5×200 μL 0.2M phosphoric acid. After drying, 100 μL Optiphase ‘SuperMix’ liquid scintillation cocktail (Perkin Elmer) was added to the well prior to scintillation counting (1450 Microbeta Liquid Scintillation Counter, Wallac).
After removing mean background values for all of the data points, Ki(app) data were calculated from non-linear regression analysis of the initial rate data using the Prism software package (GraphPad Prism version 3.0cx for Macintosh, GraphPad Software, San Diego Calif., USA).

T1 sequence (Q13535 whole entry): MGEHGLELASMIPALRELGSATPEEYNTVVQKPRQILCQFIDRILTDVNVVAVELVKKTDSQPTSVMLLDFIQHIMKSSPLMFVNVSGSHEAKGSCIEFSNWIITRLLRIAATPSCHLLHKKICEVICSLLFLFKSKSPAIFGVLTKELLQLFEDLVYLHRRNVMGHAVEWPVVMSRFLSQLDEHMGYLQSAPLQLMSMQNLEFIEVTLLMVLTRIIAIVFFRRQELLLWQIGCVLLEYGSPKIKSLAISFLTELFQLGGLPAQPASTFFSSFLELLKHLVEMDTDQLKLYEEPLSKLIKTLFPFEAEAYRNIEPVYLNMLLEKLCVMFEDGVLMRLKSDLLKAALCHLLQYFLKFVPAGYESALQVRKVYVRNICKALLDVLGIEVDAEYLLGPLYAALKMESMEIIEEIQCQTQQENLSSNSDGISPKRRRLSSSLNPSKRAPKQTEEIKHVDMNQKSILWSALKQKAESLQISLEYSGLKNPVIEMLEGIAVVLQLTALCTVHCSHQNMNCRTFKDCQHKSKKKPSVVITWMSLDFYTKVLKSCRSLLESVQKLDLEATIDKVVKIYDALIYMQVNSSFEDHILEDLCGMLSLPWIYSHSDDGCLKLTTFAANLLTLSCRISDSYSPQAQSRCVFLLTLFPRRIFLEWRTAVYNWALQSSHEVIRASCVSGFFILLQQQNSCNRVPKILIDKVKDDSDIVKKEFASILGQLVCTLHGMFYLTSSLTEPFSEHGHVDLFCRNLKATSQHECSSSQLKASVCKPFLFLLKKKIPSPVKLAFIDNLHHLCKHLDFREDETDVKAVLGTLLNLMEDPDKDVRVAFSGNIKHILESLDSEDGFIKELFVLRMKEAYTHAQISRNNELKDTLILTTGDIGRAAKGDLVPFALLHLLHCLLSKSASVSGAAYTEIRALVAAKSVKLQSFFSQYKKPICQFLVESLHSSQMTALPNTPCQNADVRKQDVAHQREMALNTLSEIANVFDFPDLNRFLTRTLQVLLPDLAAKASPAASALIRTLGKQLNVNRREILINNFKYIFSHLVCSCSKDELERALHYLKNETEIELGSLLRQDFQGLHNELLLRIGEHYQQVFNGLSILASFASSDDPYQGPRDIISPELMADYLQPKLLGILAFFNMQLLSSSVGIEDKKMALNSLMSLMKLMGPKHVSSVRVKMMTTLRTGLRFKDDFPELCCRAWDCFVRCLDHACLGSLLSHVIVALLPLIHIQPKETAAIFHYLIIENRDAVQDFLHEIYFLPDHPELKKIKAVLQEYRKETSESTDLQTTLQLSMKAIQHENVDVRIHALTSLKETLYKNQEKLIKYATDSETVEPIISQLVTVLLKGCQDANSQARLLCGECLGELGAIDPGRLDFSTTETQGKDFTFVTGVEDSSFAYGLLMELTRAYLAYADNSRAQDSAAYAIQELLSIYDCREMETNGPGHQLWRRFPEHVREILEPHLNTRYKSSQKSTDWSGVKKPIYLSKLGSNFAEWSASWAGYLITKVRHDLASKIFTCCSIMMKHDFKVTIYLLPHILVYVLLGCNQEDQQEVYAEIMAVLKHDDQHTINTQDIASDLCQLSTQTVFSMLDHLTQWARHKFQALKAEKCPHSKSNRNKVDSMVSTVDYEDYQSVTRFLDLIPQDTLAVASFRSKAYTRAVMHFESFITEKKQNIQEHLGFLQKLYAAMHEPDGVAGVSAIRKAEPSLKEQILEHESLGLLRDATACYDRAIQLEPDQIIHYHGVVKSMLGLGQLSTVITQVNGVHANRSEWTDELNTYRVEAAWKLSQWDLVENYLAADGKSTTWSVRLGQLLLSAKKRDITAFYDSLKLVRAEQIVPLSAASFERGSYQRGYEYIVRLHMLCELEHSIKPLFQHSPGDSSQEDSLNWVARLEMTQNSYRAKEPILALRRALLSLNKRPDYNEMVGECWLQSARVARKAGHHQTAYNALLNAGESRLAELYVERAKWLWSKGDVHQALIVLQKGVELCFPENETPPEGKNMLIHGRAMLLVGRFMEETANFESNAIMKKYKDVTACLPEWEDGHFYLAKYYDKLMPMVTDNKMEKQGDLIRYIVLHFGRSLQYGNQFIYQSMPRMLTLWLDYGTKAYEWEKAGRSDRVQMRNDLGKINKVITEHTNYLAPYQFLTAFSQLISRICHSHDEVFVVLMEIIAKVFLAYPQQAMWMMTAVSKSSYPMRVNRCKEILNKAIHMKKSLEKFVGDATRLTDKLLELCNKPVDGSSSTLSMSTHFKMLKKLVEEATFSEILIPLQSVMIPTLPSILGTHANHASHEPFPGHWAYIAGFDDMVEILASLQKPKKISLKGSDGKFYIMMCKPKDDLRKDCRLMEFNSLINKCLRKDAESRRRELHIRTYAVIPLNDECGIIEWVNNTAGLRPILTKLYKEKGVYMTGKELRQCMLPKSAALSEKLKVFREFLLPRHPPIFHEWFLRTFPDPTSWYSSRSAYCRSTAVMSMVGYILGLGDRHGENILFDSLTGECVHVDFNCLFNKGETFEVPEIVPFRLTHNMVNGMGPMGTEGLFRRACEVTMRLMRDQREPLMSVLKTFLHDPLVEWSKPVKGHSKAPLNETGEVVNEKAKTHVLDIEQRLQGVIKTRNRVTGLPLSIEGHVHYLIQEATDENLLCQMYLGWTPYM

Structure (SMILES) | pKi
COc1ncc(-c2c[nH]c3ncc(-c4ccc(S(=O)(=O)C(C)C)cc4)nc23)cc1C [Compound I-38, 2-(4-isopropylsulfonylphenyl)-7-(6-methoxy-5-methyl-3-pyridyl)-5H-pyrrolo[2,3-b]pyrazine] | 7.30 to 8.00
CC(C)S(=O)(=O)c1ccc(-c2cnc3[nH]cc(-c4ccccc4)c3n2)cc1 [Compound I-5, 2-(4-isopropylsulfonylphenyl)-7-phenyl-5H-pyrrolo[2,3-b]pyrazine] | < 7.30
CC(C)S(=O)(=O)c1ccc(-c2cnc3[nH]cc(-c4cc5cc(Br)ccc5s4)c3n2)cc1 [Compound I-54, 7-(5-bromobenzothiophen-2-yl)-2-(4-isopropylsulfonylphenyl)-5H-pyrrolo[2,3-b]pyrazine] | < 7.30
CC(C)S(=O)(=O)c1ccc(-c2cnc3[nH]cc(-c4cccnc4NC(=O)C(C)(C)C)c3n2)cc1 [Compound I-60, N-[3-[2-(4-isopropylsulfonylphenyl)-5H-pyrrolo[2,3-b]pyrazin-7-yl]-2-pyridyl]2,2-dimethyl-propanamide] | < 7.30
CC(C)S(=O)(=O)c1ccc(-c2cnc3[nH]cc(-c4cnc(N)cn4)c3n2)cc1 [Compound I-9, 5-[2-(4-isopropylsulfonylphenyl)-5H-pyrrolo[2,3-b]pyrazin-7-yl]pyrazin-2-amine] | < 7.30
CC(C)S(=O)(=O)c1ccc(-c2cnc3[nH]cc(-c4ccccc4C#N)c3n2)cc1 [Compound I-8, 2-[2-(4-isopropylsulfonylphenyl)-5H-pyrrolo[2,3-b]pyrazin-7-yl]benzonitrile] | < 7.30
CC(C)S(=O)(=O)c1ccc(-c2cnc3[nH]cc(-c4cn(S(=O)(=O)c5ccccc5)c5ccccc45)c3n2)cc1 [Compound I-59, 7-[1-(benzenesulfonyl)indol-3-yl]-2-(4-isopropylsulfonylphenyl)-5H-pyrrolo[2,3-b]pyrazine] | < 7.30
CC(C)S(=O)(=O)c1ccc(-c2cnc3[nH]cc(-c4cnc5[nH]ccc5c4)c3n2)cc1 [Compound I-6, 2-(4-isopropylsulfonylphenyl)-7-(1H-pyrrolo[2,3-b]pyridin-5-yl)-5H-pyrrolo[2,3-b]pyrazine] | ≥ 8.00
CC(C)S(=O)(=O)c1ccc(-c2cnc3[nH]cc(-c4cc5ccccc5n4C(=O)OC(C)(C)C)c3n2)cc1 [Compound I-61, tert-butyl 2-[2-(4-isopropylsulfonylphenyl)-5H-pyrrolo[2,3-b]pyrazin-7-yl]indole-1-carboxylate] | < 7.30
CC(C)S(=O)(=O)c1ccc(-c2cnc3[nH]cc(-c4cn[nH]c4)c3n2)cc1 [Compound I-47, 2-(4-(isopropylsulfonyl)phenyl)-7-(1H-pyrazol-4-yl)-5H-pyrrolo[2,3-b]pyrazine] | 7.30 to 8.00
COc1cccc(-c2c[nH]c3ncc(-c4ccc(S(=O)(=O)C(C)C)cc4)nc23)c1 [Compound I-30, 2-(4-isopropylsulfonylphenyl)-7-(3-methoxyphenyl)-5H-pyrrolo[2,3-b]pyrazine] | 7.30 to 8.00
COc1ccc2c(c1)cc(-c1c[nH]c3ncc(-c4ccc(S(=O)(=O)C(C)C)cc4)nc13)n2C(=O)OC(C)(C)C [Compound I-57, tert-butyl 2-[2-(4-isopropylsulfonylphenyl)-5H-pyrrolo[2,3-b]pyrazin-7-yl]-5-methoxy-indole-1-carboxylate] | < 7.30
CC(C)S(=O)(=O)c1ccc(-c2cnc3[nH]cc(-c4ccccc4CO)c3n2)cc1 [Compound I-16, [2-[2-(4-isopropylsulfonylphenyl)-5H-pyrrolo[2,3-b]pyrazin-7-yl]phenyl]methanol] | < 7.30
CC(Oc1cc(-c2c[nH]c3ncc(-c4ccc(S(=O)(=O)C(C)C)cc4)nc23)sc1C(=O)O)c1ccccc1Cl (stereo not drawn) [Compound I-69, 3-[1-(2-chlorophenyl)ethoxy]-5-[2-(4-isopropylsulfonylphenyl)-5H-pyrrolo[2,3-b]pyrazin-7-yl]thiophene-2-carboxylic acid] | ≥ 8.00
CC(C)S(=O)(=O)c1ccc(-c2cnc3[nH]cc(-c4cncc(S(C)(=O)=O)c4)c3n2)cc1 [Compound I-48, 2-(4-isopropylsulfonylphenyl)-7-(5-methylsulfonyl-3-pyridyl)-5H-pyrrolo[2,3-b]pyrazine] | 7.30 to 8.00
CC(C)S(=O)(=O)c1ccc(-c2cnc3[nH]cc(-c4cc5cc(F)ccc5n4C(=O)OC(C)(C)C)c3n2)cc1 [Compound I-56, tert-butyl 5-fluoro-2-[2-(4-isopropylsulfonylphenyl)-5H-pyrrolo[2,3-b]pyrazin-7-yl]indole-1-carboxylate] | < 7.30
COc1cc(-c2c[nH]c3ncc(-c4ccc(S(=O)(=O)C(C)C)cc4)nc23)c(F)cn1 [Compound I-39, 7-(5-fluoro-2-methoxy-4-pyridyl)-2-(4-isopropylsulfonylphenyl)-5H-pyrrolo[2,3-b]pyrazine] | < 7.30

Structure (SMILES) | pKi
Cc1ccsc1-c1c[nH]c2ncc(-c3ccc(S(=O)(=O)C(C)C)cc3)nc12 [Compound I-28, 2-(4-isopropylsulfonylphenyl)-7-(3-methyl-2-thienyl)-5H-pyrrolo[2,3-b]pyrazine] | < 7.30
CC(C)S(=O)(=O)c1ccc(-c2cnc3[nH]cc(-c4cncc5ccccc45)c3n2)cc1 [Compound I-42, 4-[2-(4-isopropylsulfonylphenyl)-5H-pyrrolo[2,3-b]pyrazin-7-yl]isoquinoline] | 7.30 to 8.00
CC(C)S(=O)(=O)c1ccc(-c2cnc3[nH]cc(-c4ccc(F)nc4)c3n2)cc1 [Compound I-23, 7-(6-fluoro-3-pyridyl)-2-(4-isopropylsulfonylphenyl)-5H-pyrrolo[2,3-b]pyrazine] | 7.30 to 8.00
CC(C)S(=O)(=O)c1ccc(-c2cnc3[nH]cc(-c4ccccc4C(=O)N(C)C)c3n2)cc1 [Compound I-19, 2-[2-(4-isopropylsulfonylphenyl)-5H-pyrrolo[2,3-b]pyrazin-7-yl]-N,N-dimethyl-benzamide] | < 7.30
CC(C)S(=O)(=O)c1ccc(-c2cnc3[nH]cc(-c4cccnc4F)c3n2)cc1 [Compound I-24, 7-(2-fluoro-3-pyridyl)-2-(4-isopropylsulfonylphenyl)-5H-pyrrolo[2,3-b]pyrazine] | ≥ 8.00
CC(C)S(=O)(=O)c1ccc(-c2cnc3[nH]cc(-c4cccnc4)c3n2)cc1 [Compound I-1, 2-(4-Isopropylsulfonylphenyl)-7-(3-pyridyl)-5H-pyrrolo[2,3-b]pyrazine] | 7.30 to 8.00
CC(C)S(=O)(=O)c1ccc(-c2cnc3[nH]cc(-c4ccn(C)n4)c3n2)cc1 [Compound I-49, 2-(4-isopropylsulfonylphenyl)-7-(1-methylpyrazol-3-yl)-5H-pyrrolo[2,3-b]pyrazine] | 7.30 to 8.00
CC(C)S(=O)(=O)c1ccc(-c2cnc3[nH]cc(-c4csc(C(=O)O)c4)c3n2)cc1 [Compound I-64, 4-[2-(4-isopropylsulfonylphenyl)-5H-pyrrolo[2,3-b]pyrazin-7-yl]thiophene-2-carboxylic acid] | ≥ 8.00
CC(C)S(=O)(=O)c1ccc(-c2cnc3[nH]cc(-c4cnn(C)c4)c3n2)cc1 [Compound I-50, 2-(4-isopropylsulfonylphenyl)-7-(1-methylpyrazol-4-yl)-5H-pyrrolo[2,3-b]pyrazine] | < 7.30
CC(C)S(=O)(=O)c1ccc(-c2cnc3[nH]cc(-c4csc5ccccc45)c3n2)cc1 [Compound I-44, 7-(benzothiophen-3-yl)-2-(4-isopropylsulfonylphenyl)-5H-pyrrolo[2,3-b]pyrazine] | < 7.30
CC(C)S(=O)(=O)c1ccc(-c2cnc3[nH]cc(-c4cc(-c5ccccc5)no4)c3n2)cc1 [Compound I-3, 5-[2-(4-Isopropylsulfonylphenyl)-5H-pyrrolo[2,3-b]pyrazin-7-yl]-3-phenyl-isoxazole] | ≥ 8.00
CC(C)S(=O)(=O)c1ccc(-c2cnc3[nH]cc(-c4ccc5[nH]ccc5c4)c3n2)cc1 [Compound I-35, 7-(1H-indol-5-yl)-2-(4-isopropylsulfonylphenyl)-5H-pyrrolo[2,3-b]pyrazine] | 7.30 to 8.00
CC(C)S(=O)(=O)c1ccc(-c2cnc3[nH]cc(-c4cscc4C#N)c3n2)cc1 [Compound I-21, 4-[2-(4-isopropylsulfonylphenyl)-5H-pyrrolo[2,3-b]pyrazin-7-yl]thiophene-3-carbonitrile] | < 7.30
CC(C)S(=O)(=O)c1ccc(-c2cnc3[nH]cc(-c4ccc(-c5nnn[nH]5)cc4)c3n2)cc1 [Compound I-67, 2-(4-isopropylsulfonylphenyl)-7-[4-(1H-tetrazol-5-yl)phenyl]-5H-pyrrolo[2,3-b]pyrazine] | < 7.30
CC(C)S(=O)(=O)c1ccc(-c2cnc3[nH]cc(-c4cc5c(Cl)cccc5n4C(=O)OC(C)(C)C)c3n2)cc1 [Compound I-58, tert-butyl 4-chloro-2-[2-(4-isopropylsulfonylphenyl)-5H-pyrrolo[2,3-b]pyrazin-7-yl]indole-1-carboxylate] | < 7.30
COc1ccc(-c2c[nH]c3ncc(-c4ccc(S(=O)(=O)C(C)C)cc4)nc23)cn1 [Compound I-31, 2-(4-isopropylsulfonylphenyl)-7-(6-methoxy-3-pyridyl)-5H-pyrrolo[2,3-b]pyrazine] | < 7.30

Source: patent publication US8623869B2, “Compounds useful as inhibitors of ATR kinase” (Vertex Pharmaceuticals Incorporated, priority 2010, dated 2014)
